ChEMBL document CHEMBL1201862, “PubChem BioAssay data set” (2004)
The source made the active and inactive calls.

Tests used:
Paired box protein Pax-8 = Paired box protein Pax-8 (Homo sapiens, UniProt Q06710); assay: PAX8 transcriptional activity inhibition in RMG-I – RMG-I cells, luciferase, cherry-pick, dose response (AID 687027); type: functional, cell-based;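 note: luciferase reporter driven by Pax8 target thyroperoxidase promoter measured by SteadyGlo luminescence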
[1] = target: T1, RNA-binding protein pos-1 (Caenorhabditis elegans, UniProt G5EF15); assay: disruptors of C. elegans POS-1 RNA interaction – biochemical, fluorescence polarization, dose response (AID 1964);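 note: purified POS-1 fused to maltose binding protein made in E. coli; potency of compounds blocking POS-1 binding to fluorescent RNA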
T1 sequence (G5EF15 whole entry): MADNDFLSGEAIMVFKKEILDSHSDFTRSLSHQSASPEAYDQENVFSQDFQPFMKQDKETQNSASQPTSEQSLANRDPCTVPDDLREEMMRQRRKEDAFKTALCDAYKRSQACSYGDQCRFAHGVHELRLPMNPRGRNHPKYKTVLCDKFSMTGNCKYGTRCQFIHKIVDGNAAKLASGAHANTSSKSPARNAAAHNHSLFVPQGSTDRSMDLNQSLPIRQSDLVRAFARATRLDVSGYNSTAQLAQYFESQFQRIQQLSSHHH

[2] = target: T2, Zinc finger protein mex-5 (Caenorhabditis elegans, UniProt Q9XUB2); assay: potency of MEX-5 RNA-binding blockers – biochemical, C. elegans, fluorescence polarization, dose response (AID 1960)
T2 sequence (Q9XUB2 whole entry): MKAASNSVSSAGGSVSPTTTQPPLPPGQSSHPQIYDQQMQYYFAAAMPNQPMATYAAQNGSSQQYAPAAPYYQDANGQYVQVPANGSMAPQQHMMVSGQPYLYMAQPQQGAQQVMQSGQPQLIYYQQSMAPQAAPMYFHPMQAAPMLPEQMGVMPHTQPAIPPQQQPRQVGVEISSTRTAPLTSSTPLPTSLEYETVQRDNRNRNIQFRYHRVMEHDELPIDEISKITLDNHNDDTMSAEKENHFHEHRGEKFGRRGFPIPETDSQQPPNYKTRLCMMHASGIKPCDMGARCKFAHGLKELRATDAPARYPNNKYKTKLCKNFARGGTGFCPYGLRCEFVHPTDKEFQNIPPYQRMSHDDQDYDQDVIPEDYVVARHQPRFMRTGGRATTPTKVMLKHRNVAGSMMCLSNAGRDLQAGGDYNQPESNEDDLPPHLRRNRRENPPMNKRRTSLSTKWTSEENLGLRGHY

Cytochrome P450 1A2 = target: T3, Cytochrome P450 1A2 (Homo sapiens, UniProt P05177);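 note: PubChem cytochrome P450 panel assay, CYP1A2 panel member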
T3 sequence (P05177 whole entry): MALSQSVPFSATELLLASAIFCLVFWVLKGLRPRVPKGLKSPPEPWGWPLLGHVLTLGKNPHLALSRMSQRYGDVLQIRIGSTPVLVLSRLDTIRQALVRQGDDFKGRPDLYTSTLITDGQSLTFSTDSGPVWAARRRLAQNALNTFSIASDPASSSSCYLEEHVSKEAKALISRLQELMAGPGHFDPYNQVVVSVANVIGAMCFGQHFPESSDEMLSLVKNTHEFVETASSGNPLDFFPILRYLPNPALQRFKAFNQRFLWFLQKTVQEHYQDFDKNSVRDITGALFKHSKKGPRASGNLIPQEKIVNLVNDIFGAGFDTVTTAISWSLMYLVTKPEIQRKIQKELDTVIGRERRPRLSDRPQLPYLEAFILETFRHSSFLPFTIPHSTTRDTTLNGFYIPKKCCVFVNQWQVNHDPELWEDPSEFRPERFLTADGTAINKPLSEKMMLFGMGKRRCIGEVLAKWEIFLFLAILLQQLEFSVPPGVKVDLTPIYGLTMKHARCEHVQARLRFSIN

Cytochrome P450 2D6 = Cytochrome P450 2D6 (Homo sapiens, UniProt P10635);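 note: CYP2D6 member of a cytochrome P450 panel assay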
Cytochrome P450 2C19 = Cytochrome P450 2C19 (Homo sapiens, UniProt P33261); assay: Cytochrome panel assay with activity outcomes. Panel member name: p450-cyp2c19 Compounds with AC50 equal or less than 10 uM are considered active; type: functional; conditions: read-out: AC50
H4 = assay: Luminescence Cell-Based Dose Response HTS to Identify Activators of 5'UTR Stem-Loop Driven Prion Protein mRNA Translation in H4 Neuroglioblastoma Cells. [Related pubchem assays: 1829 (Project Summary), 1814 (Primary HTS)]; type: functional; conditions: Homo sapiens
[3] = Luminescence Cell-Based Dose Response HTS to Identify Activators of Luciferase Translation or Activity in H4 […] Cells. [Related pubchem assays: 1829 (Project Summary), 1814 (Primary HTS)]; type: functional
Cytochrome P450 2C9 = Cytochrome P450 2C9 (Homo sapiens, UniProt P11712)
Cytochrome P450 3A4 = Cytochrome P450 3A4 (Homo sapiens, UniProt P08684);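 note: CYP3A4 tested as one member of a cytochrome P450 panel screen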
[4] = target: T4, Replicative DNA helicase DnaB (Mycobacterium tuberculosis, UniProt P9WMR3); assay: DnaB intein splicing inhibitors, dose response, biochemical, cell-free fluorescence (AID 449749); type: functional
T4 sequence (P9WMR3 whole entry): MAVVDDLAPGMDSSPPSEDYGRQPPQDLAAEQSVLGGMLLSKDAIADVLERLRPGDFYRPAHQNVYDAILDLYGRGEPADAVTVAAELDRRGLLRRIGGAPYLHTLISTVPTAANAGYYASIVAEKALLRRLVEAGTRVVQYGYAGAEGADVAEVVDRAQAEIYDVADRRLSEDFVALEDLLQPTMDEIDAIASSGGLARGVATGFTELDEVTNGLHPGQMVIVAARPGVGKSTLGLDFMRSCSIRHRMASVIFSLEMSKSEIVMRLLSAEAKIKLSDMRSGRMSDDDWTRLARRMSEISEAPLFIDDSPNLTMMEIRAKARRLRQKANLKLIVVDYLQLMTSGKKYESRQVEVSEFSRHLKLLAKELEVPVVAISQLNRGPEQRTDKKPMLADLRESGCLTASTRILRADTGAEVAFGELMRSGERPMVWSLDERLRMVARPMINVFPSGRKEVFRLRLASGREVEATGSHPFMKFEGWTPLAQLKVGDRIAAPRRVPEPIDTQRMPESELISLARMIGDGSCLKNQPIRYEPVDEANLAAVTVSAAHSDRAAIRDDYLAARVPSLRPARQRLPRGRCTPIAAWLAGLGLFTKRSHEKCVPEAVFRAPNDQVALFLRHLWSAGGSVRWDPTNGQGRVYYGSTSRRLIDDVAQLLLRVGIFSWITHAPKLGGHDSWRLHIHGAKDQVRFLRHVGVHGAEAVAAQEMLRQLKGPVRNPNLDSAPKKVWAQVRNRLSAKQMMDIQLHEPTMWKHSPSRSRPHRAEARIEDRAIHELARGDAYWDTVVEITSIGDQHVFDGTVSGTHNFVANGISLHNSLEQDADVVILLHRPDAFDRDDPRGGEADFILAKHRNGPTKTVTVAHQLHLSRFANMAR

Protein RecA = target: T5, Protein RecA (Mycobacterium tuberculosis, UniProt P9WHJ3); assay: Fluorescence Cell-Free Homogeneous Dose Retest to Identify Inhibitors of RecA-Intein Splicing Activity. [Related pubchem assays (depositor defined):AID2097, AID2223, AID489010, AID492950]; type: functional
T5 sequence (P9WHJ3 whole entry): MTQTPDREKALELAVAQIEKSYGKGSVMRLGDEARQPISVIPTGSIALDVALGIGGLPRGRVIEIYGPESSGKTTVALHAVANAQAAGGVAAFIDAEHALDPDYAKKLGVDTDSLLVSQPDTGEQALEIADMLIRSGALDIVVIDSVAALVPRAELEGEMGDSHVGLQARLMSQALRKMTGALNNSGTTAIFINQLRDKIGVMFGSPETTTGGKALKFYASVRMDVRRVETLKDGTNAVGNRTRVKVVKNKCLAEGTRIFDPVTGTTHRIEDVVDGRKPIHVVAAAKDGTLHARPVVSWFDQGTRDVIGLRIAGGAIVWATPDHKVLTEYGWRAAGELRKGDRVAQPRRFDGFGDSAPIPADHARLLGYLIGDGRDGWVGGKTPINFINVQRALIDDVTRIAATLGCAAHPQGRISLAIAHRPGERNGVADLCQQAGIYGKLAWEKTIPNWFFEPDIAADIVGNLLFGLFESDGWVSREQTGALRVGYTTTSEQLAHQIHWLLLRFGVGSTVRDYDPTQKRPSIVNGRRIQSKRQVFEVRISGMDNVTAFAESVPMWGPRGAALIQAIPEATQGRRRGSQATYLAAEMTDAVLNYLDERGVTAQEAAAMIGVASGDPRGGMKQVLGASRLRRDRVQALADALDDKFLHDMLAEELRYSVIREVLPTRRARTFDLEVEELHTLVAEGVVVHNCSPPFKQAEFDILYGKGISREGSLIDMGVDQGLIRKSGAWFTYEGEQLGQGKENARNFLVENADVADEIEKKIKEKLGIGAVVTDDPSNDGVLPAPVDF

Chain of Paired box protein Pax-8 (Q06710 whole entry, the tested form may be a part): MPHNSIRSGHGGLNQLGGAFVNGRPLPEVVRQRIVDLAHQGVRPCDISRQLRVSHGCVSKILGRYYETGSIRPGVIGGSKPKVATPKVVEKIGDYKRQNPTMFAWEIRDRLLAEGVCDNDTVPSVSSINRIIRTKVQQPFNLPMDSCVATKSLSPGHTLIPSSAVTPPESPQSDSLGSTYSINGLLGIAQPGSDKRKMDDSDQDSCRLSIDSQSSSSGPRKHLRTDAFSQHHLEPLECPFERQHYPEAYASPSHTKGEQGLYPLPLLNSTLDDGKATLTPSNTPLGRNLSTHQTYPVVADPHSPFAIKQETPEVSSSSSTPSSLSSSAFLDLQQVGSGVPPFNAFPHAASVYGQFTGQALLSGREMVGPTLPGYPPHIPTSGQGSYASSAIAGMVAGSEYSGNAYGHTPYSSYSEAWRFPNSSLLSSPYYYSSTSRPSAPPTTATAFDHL
Chain of Cytochrome P450 2D6 (P10635 whole entry): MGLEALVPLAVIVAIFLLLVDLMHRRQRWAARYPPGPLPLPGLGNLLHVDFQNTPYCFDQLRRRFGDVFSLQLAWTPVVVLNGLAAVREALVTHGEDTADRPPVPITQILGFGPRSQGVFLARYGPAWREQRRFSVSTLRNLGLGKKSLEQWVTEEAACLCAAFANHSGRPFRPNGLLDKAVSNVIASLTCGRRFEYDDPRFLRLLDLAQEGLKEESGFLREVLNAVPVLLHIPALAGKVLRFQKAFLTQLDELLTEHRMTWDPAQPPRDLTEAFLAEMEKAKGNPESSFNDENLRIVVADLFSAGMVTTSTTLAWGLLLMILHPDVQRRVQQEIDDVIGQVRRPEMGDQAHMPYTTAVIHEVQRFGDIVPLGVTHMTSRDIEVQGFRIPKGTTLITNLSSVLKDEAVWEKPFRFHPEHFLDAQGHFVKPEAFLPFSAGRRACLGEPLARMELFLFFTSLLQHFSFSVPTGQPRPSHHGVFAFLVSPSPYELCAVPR
Chain of Cytochrome P450 2C19 (P33261 whole entry): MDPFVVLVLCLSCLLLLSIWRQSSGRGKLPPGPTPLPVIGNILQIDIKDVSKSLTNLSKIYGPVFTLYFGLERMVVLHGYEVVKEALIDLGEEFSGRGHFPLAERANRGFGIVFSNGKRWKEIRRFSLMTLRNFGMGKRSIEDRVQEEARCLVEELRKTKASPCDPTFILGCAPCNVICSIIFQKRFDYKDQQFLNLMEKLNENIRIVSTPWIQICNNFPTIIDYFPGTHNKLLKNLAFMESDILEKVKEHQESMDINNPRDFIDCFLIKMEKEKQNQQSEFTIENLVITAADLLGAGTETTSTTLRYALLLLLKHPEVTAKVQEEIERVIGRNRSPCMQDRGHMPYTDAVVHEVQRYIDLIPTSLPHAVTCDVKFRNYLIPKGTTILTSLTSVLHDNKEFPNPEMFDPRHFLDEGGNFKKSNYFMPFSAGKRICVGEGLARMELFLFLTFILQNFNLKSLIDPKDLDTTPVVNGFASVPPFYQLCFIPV
Chain of Cytochrome P450 2C9 (P11712 whole entry): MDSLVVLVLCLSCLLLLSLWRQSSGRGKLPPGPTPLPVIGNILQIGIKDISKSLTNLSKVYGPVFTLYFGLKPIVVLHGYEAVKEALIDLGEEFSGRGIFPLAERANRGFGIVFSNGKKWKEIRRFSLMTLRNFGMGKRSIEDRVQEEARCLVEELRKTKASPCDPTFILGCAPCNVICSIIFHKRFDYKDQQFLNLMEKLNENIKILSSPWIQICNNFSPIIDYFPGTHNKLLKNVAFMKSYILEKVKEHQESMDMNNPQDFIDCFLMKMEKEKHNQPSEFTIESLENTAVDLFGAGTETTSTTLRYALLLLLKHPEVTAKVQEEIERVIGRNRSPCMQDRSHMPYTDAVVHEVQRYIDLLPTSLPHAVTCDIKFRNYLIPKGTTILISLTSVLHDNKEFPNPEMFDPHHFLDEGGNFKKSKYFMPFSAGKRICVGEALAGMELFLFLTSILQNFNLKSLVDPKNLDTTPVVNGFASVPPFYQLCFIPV
Chain of Cytochrome P450 3A4 (P08684 whole entry): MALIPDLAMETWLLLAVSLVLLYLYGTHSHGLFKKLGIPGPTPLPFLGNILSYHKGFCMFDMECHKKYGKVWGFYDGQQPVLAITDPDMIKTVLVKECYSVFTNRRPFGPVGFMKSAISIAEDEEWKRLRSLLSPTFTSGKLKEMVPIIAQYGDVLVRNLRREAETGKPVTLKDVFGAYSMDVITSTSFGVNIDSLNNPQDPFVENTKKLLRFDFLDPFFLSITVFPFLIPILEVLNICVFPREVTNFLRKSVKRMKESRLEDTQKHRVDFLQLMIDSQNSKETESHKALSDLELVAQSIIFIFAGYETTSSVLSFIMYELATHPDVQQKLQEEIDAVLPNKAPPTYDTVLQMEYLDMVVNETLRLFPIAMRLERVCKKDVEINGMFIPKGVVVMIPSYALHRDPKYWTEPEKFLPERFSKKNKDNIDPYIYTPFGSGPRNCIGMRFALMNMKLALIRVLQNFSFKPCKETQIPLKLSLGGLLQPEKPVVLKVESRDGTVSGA

| SMILES | EC50 [1] | EC50 [2] | AC50 (Cytochrome P450 2D6) | further results |
| --- | --- | --- | --- | --- |
| CCCCn1nc(C(=O)Nc2cc(C(F)(F)F)ccc2N2CCOCC2)ccc1=O | – | – | – | AC50 (Paired box protein Pax-8): 4.7 µM (active) |
| CCn1c(CNC(=O)c2ccc(Cl)cc2)nnc1SCC(=O)N1CCOCC1 | > 300 µM (not active) | > 300 µM (not active) | – | – |
| COC(=O)[C@@]1(Cc2ccc(F)cc2)[C@H]2c3cc(C(=O)N(C)C)n(Cc4ccc(Cl)c(C(F)(F)F)c4)c3C[C@H]2CN1C(=O)c1ccccc1 | – | – | 6.31 µM (inconclusive) | AC50 (Cytochrome P450 1A2): 15.8 µM (inconclusive); AC50 (Cytochrome P450 2C19): 5.01 µM (inconclusive) |
| COc1ccc(C2=CC3=CC(=O)C(C)(O)C(=O)C3=CO2)cc1 (stereo not drawn) | 45.6 µM (active) | 25.5 µM (active) | – | – |
| COC(=O)[C@@]1(Cc2ccc(OC)cc2)[C@H]2c3cc(C(=O)N4CCCC4)n(CCc4ccc(O)c(OC)c4)c3C[C@H]2CN1C(=O)c1ccccc1 | – | – | 39.8 µM (inconclusive) | – |
| [O-][n+]1onc2c3ccnnc3ccc21 | – | – | – | EC50 (H4): > 120 µM (not active); EC50 [3]: 1.93 µM (active) |
| CC1(C)CC(=O)C2=C(C1)OC(N)=C(C#N)C2c1ccc(OC(=O)N2CCOCC2)cc1 (stereo not drawn) | > 300 µM (not active) | > 300 µM (not active) | – | – |
| CC1(OC(=O)C2CCCC2)C(=O)C=C2C=C(C3CC3)OC=C2C1=O (stereo not drawn) | > 300 µM (not active) | > 300 µM (not active) | – | – |
| Clc1ccc(COc2ccccn2)cc1Cl | – | – | 11.2 µM (inconclusive) | – |
| Cc1cc(N2C(=O)C(O)=C(C(=O)c3cc4ccccc4o3)C2c2ccc([N+](=O)[O-])cc2)no1 (stereo not drawn) | > 300 µM (not active) | 45.4 µM (active) | – | – |
| COc1cc(OC)c2c(-c3cccc(-c4ccc(OC)c(F)c4)c3)cc(=O)oc2c1 | – | – | – | AC50 (Paired box protein Pax-8): 1.08 µM (active) |
| COC(=O)[C@@]1(Cc2ccc(F)cc2)[C@H]2c3cc(C(=O)N(C)C)n(Cc4cc(C)n(C)n4)c3C[C@H]2CN1C(=O)c1ccccc1 | – | – | 39.8 µM (inconclusive) | AC50 (Cytochrome P450 2C19): 39.8 µM (inconclusive) |
| CCc1c(C)nc(SCC(=O)NNC(=O)c2ccco2)[nH]c1=O | 7.26 µM (inconclusive) | 10.1 µM (active) | – | – |
| Cc1cccc(Nc2nc3c(s2)CCCC3)c1 | – | – | – | EC50 (H4): 3.41 µM (active); EC50 [3]: 2.59 µM (active) |
| O=C(NCc1ccc2c(c1)OCO2)C1CC(=O)N(C2CCCC2)C1 (stereo not drawn) | – | – | 12.6 µM (inconclusive) | AC50 (Cytochrome P450 1A2): 17.8 µM (inconclusive); AC50 (Cytochrome P450 2C19): 35.5 µM (inconclusive) |
| CC(C)C(=O)NCCCc1ccccc1 | – | – | 20 µM (inconclusive) | AC50 (Cytochrome P450 2C9): 5.62 µM (inconclusive) |
| O=C(CN1CCN(c2ccc(Cl)cc2)CC1)Nc1cccc(F)c1 | – | – | 1.41 µM (inconclusive) | AC50 (Cytochrome P450 3A4): 25.1 µM (inconclusive) |
| COc1ccc2[nH]c(-c3ccccc3)c(CCNC(C)=O)c2c1 | – | – | 25.1 µM (inconclusive) | – |
| O=C1N=NC2=C1c1c3ccccc3c(O)n1CC2 | – | – | – | AC50 [4]: 15.6 µM (active); EC50 (Protein RecA): 7.63 µM (active) |
| Cc1ccc(/C=C2\C(=O)NC(=O)N(CC3CCCO3)C2=O)s1 (stereo not drawn) | > 300 µM (not active) | > 300 µM (not active) | – | – |
| O=C1NC(=O)/C(=C2\C(=O)Nc3ccc(Br)cc32)S1 | 17 µM (active) | 11 µM (active) | – | – |
| COc1ccc(NC(=O)CSc2nnc(CNC(=O)c3ccco3)n2-c2ccccc2OC)cc1 | – | – | 35.5 µM (inconclusive) | AC50 (Cytochrome P450 3A4): 39.8 µM (inconclusive); AC50 (Cytochrome P450 2C19): 3.98 µM (inconclusive); AC50 (Cytochrome P450 2C9): 5.01 µM (inconclusive) |
| C1=Cc2ccccc2C1.C=C(C)c1ccccc1.[N-]=[N+]=Nc1ccccc1 | – | – | 3.98 µM (inconclusive) | AC50 (Cytochrome P450 2C19): 3.16 µM (inconclusive) |
| Cc1ccc(-c2ccc(CCC(=O)O)n2-c2ccc(C(=O)O)cc2)cc1 | > 300 µM (not active) | > 300 µM (not active) | – | – |
| CCOc1ccc(C(CN2CCOCC2)C(C)=O)cc1OC (stereo not drawn) | – | – | – | AC50 (Paired box protein Pax-8): 1.68 µM (active) |
| COc1ccc(S(=O)(=O)Nc2ccc3c(c2)CC(=O)N([C@H](C)CO)C[C@H](C)[C@@H](CN(C)Cc2ccc(Cl)c(Cl)c2)O3)cc1 | – | – | – | AC50 (Paired box protein Pax-8): 16.2 µM (active) |
| Cc1ccc(S(=O)(=O)Nc2ccc3c(c2)C(=O)N([C@@H](C)CO)C[C@@H](C)[C@@H](CN(C)Cc2ccc(C(F)(F)F)cc2)OCCCC[C@@H](C)O3)cc1 | – | – | – | AC50 (Paired box protein Pax-8): 13.3 µM (active) |
| Cc1cc(/C=N/n2cnnc2)c(C)n1-c1ccc(C(=O)O)cc1 | > 300 µM (not active) | > 300 µM (not active) | – | – |
| CC(=O)O[C@@H]1CN2CCC1CC2 [(S)-ACECLIDINE] | – | – | 15.8 µM (inconclusive) | – |
